Structures can show the parent of a compound that is named as a salt.
Key:
[1] = target: JAK2 (Homo sapiens (Human), UniProt O60674); assay: Jak biochemical HTRF assay, JAK2; settings: HTRF biochemical assay, recombinant GST-tagged catalytic domain; read-out: JAK2 IC50
[2] = target: JAK1 (Homo sapiens (Human), UniProt P23458); assay: Jak biochemical HTRF assay, JAK1; settings: HTRF biochemical assay, recombinant GST-tagged catalytic domain; read-out: JAK1 IC50
Sequence of JAK1 (P23458 875-1153): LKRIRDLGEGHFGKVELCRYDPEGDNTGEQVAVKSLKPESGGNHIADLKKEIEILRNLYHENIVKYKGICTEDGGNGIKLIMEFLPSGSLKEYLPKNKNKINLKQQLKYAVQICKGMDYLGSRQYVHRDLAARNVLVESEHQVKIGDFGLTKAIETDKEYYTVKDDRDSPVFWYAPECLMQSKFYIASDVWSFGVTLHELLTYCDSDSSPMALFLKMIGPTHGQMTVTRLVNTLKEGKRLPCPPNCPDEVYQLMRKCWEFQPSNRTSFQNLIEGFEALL

Sequence of JAK2 (O60674 849-1124): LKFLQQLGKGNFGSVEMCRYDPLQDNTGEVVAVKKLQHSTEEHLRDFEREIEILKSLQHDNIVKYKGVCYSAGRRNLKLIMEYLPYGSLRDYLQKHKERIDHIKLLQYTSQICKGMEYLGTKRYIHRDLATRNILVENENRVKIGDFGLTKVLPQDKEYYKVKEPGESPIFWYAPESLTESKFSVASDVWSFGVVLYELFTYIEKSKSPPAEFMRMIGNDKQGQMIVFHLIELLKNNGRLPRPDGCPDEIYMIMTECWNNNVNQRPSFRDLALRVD

IC50 [1]	IC50 [2]	SMILES
2.3 nM	0.17 nM	Cc1cc(Nc2nn([C@H]3CCCC[C@@H]3C#N)c3cc[nH]c(=O)c23)ccc1-c1cnn(CCC#N)c1 [Example 15-18, (1S,2S)-2-[3-({4-[1-(2-cyanoethyl)-1H-pyrazol-4-yl]-3-methylphenyl}amino)-4-oxo-4,5-dihydro-1H-pyrazolo[4,3-c]pyridin-1-yl]cyclohexanecarbonitrile]
0.37 nM	0.23 nM	CN(C(C)(C)C)S(=O)(=O)c1ccc(Nc2nn([C@@H]3CCCCC[C@H]3C#N)c3cc[nH]c(=O)c23)cc1 (single isomer, unassigned) [Example 15-51, N-tert-butyl-4-({1-[(1R,2R or 1S,2S)-2-cyanocycloheptyl]-4-oxo-4,5-dihydro-1H-pyrazolo[4,3-c]pyridin-3-yl}amino)-N-methylbenzenesulfonamide]
5.9 nM	1.7 nM	CCOC(=O)c1cnn(-c2ccc(Nc3nn([C@H]4CCCC[C@@H]4C#N)c4cc[nH]c(=O)c34)cc2C)c1 [Example 15-15, ethyl 1-[4-({1-[(1S,2S)-2-cyanocyclohexyl]-4-oxo-4,5-dihydro-1H-pyrazolo[4,3-c]pyridin-3-yl}amino)-2-methylphenyl]-1H-pyrazole-4-carboxylate]
1.4 nM	0.11 nM	CC1(C)C(=O)Nc2cc(Nc3nn([C@H]4CCCC[C@@H]4C#N)c4cc[nH]c(=O)c34)ccc21 [Example 15-7, (1S,2S)-2-{3-[(3,3-dimethyl-2-oxo-2,3-dihydro-1H-indol-6-yl)amino]-4-oxo-4,5-dihydro-1H-pyrazolo[4,3-c]pyridin-1-yl}cyclohexanecarbonitrile]
1.9 nM	0.13 nM	N#C[C@H]1CCCC[C@@H]1n1nc(Nc2ccc(-c3ncco3)cc2)c2c(=O)[nH]ccc21 [Example 15-1, (1S,2S)-2-(3-{[4-(1,3-Oxazol-2-yl)phenyl]amino}-4-oxo-4,5-dihydro-1H-pyrazolo[4,3-c]pyridin-1-yl)cyclohexanecarbonitrile]
1.2 nM	0.26 nM	Cc1cc(Nc2nn([C@@H]3CCCCC[C@H]3C#N)c3cc[nH]c(=O)c23)ccc1C(O)C(F)(F)F (single isomer, unassigned) [Example 15-68, (1R,2R or 1S,2S)-2-[3-({3-methyl-4-[(1R or 1S)-2,2,2-trifluoro-1-hydroxyethyl]phenyl}amino)-4-oxo-4,5-dihydro-1H-pyrazolo[4,3-c]pyridin-1-yl]cycloheptanecarbonitrile]
3.4 nM	0.16 nM	N#C[C@H]1CCCC[C@@H]1n1nc(Nc2ccc(C(=O)O)cc2)c2c(=O)[nH]ccc21 [Example 16-1, 4-((1-((1S,2S)-2-Cyanocyclohexyl)-4-oxo-4,5-dihydro-1H-pyrazolo[4,3-c]pyridin-3-yl)amino)benzoic acid, HCl]
0.48 nM	0.069 nM	CC(C)(C)N1Cc2cc(Nc3nn([C@H]4CCCC[C@@H]4C#N)c4cc[nH]c(=O)c34)ccc2C1=O [Example 15-20, (1S,2S)-2-{3-[(2-tert-butyl-1-oxo-2,3-dihydro-1H-isoindol-5-yl)amino]-4-oxo-4,5-dihydro-1H-pyrazolo[4,3-c]pyridin-1-yl}cyclohexanecarbonitrile]
0.14 nM	0.062 nM	CC1(N2Cc3cc(Nc4nn([C@H]5CCCC[C@@H]5C#N)c5cc[nH]c(=O)c45)ccc3C2=O)CCOCC1 [Example 15-63, (1S,2S)-2-(3-{[2-(4-methyltetrahydro-2H-pyran-4-yl)-1-oxo-2,3-dihydro-1H-isoindol-5-yl]amino}-4-oxo-4,5-dihydro-1H-pyrazolo[4,3-c]pyridin-1-yl)cyclohexanecarbonitrile]

The next lines start with the compound.

SMILES	IC50 [1]	IC50 [2]
CC1(C)OCC(C)(c2cccc(Nc3nn([C@H]4CCCC[C@@H]4C#N)c4cc[nH]c(=O)c34)c2)O1 (stereo partly drawn) [Example 3-38, (1S,2S)-2-{4-Oxo-3-[3-(2,2,4-trimethyl-[1,3]dioxolan-4-yl)-phenylamino]-4,5-dihydro-pyrazolo[4,3-c]pyridin-1-yl}-cyclohexanecarbonitrile]	16 nM	5 nM
N#C[C@H]1CCCC[C@@H]1n1nc(Nc2ccnc(F)c2)c2c(=O)[nH]ccc21 [Example 3-2, (1S,2S)-2-{3-[(2-fluoropyridin-4-yl)amino]-4-oxo-4,5-dihydro-1H-pyrazolo[4,3-c]pyridin-1-yl}cyclohexanecarbonitrile]	5.4 nM	0.4 nM
N#C[C@H]1CCCC[C@@H]1n1nc(Nc2ccc(C3CCCN3)cc2)c2c(=O)[nH]ccc21 (single isomer, unassigned) [Example 3-71, (1S,2S)-2-[4-oxo-3-({4-[(2S or 2R)-pyrrolidin-2-yl]phenyl}amino)-4,5-dihydro-1H-pyrazolo[4,3-c]pyridin-1-yl]cyclohexanecarbonitrile]	0.54 nM	0.27 nM
COCCN1Cc2cc(Nc3nn([C@H]4CCCC[C@@H]4C#N)c4cc[nH]c(=O)c34)ccc2S1(=O)=O [Example 3-83, (1S,2S)-2-(3-{[2-(2-methoxyethyl)-1,1-dioxido-2,3-dihydro-1,2-benzisothiazol-5-yl]amino}-4-oxo-4,5-dihydro-1H-pyrazolo[4,3-c]pyridin-1-yl)cyclohexanecarbonitrile]	0.55 nM	0.066 nM
N#C[C@H]1CCCC[C@@H]1n1nc(Nc2ccc(S(=O)(=O)NC3CCCCC3)cc2)c2c(=O)[nH]ccc21 [Example 3-22, 4-({1-[(1S,2S)-2-cyanocyclohexyl]-4-oxo-4,5-dihydro-1H-pyrazolo[4,3-c]pyridin-3-yl}amino)-N-cyclohexylbenzenesulfonamide]	1.2 nM	0.4 nM
COCC(C)(C)CN1Cc2cc(Nc3nn([C@H]4CCCC[C@@H]4C#N)c4cc[nH]c(=O)c34)ccc2S1(=O)=O [Example 3-159, (1S,2S)-2-(3-((2-(3-methoxy-2,2-dimethylpropyl)-1,1-dioxido-2,3-dihydrobenzo[d]isothiazol-5-yl)amino)-4-oxo-4,5-dihydro-1H-pyrazolo[4,3-c]pyridin-1-yl)cyclohexanecarbonitrile]	0.44 nM	0.059 nM
CC(C)CN1Cc2ccc(Nc3nn([C@H]4CCCC[C@@H]4C#N)c4cc[nH]c(=O)c34)cc2C1 [Example 3-75, (1S,2S)-2-(3-{[2-(2-methylpropyl)-2,3-dihydro-1H-isoindol-5-yl]amino}-4-oxo-4,5-dihydro-1H-pyrazolo[4,3-c]pyridin-1-yl)cyclohexanecarbonitrile]	0.68 nM	0.28 nM
N#C[C@H]1CCC[C@@H]1n1nc(Nc2ccc(C(N)C(F)(F)F)cc2)c2c(=O)[nH]ccc21 (single isomer, unassigned) [Example 3-136, (1S,2S)-2-[3-({4-[(1R or 1S)-1-amino-2,2,2-trifluoroethyl]phenyl}amino)-4-oxo-4,5-dihydro-1H-pyrazolo[4,3-c]pyridin-1-yl]cyclopentanecarbonitrile]	0.7 nM	0.28 nM
N#C[C@H]1CCCC[C@@H]1n1nc(Nc2ccc3c(c2)CN(C2CCCC2)C3=O)c2c(=O)[nH]ccc21 [Example 3-154, (1S,2S)-2-{3-[(2-cyclopentyl-1-oxo-2,3-dihydro-1H-isoindol-5-yl)amino]-4-oxo-4,5-dihydro-1H-pyrazolo[4,3-c]pyridin-1-yl}cyclohexanecarbonitrile]	0.45 nM	0.056 nM

— US9725445B2, “Cycloalkyl nitrile pyrazolo pyridones as Janus kinase inhibitors” (Merck Sharp & Dohme Corp., priority 2013, dated 2017)
